In ChEMBL document CHEMBL4828771, “Discovery and Development of a Potent, Selective, and Orally Bioavailable CHK1 Inhibitor Candidate: 5-((4-((3-Amino-3-methylbutyl)amino)-5-(trifluoromethyl)pyrimidin-2-yl)amino)picolinonitrile” (J Med Chem, 2021):
Active and inactive are the calls of the source. The calls are words filed in the database; no cut-off is given here.

What was measured:
[1] = biological target: T1, Serine/threonine-protein kinase Chk1 (Homo sapiens, UniProt O14757); assay: Inhibition of CHK1 (unknown origin) incubated for 1 hr in presence of ATP by HTRF assay
T1 sequence (O14757 whole entry): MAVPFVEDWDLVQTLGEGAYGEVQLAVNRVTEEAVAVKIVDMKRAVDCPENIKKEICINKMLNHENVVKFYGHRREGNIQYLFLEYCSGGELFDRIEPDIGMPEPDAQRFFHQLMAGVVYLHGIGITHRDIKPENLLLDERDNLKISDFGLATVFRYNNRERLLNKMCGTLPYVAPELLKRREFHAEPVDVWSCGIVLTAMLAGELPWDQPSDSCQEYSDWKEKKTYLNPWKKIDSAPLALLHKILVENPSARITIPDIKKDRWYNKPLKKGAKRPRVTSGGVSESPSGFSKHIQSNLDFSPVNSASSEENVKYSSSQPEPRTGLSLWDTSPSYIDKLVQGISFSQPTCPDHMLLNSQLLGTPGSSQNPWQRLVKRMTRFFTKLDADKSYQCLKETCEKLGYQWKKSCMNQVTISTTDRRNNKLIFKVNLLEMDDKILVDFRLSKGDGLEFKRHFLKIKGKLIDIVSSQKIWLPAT

MV4-11 [2] = assay: Antitumor activity against human MV4-11 cells xenografted in po dosed mouse assessed as inhibition of tumor growth administered for 21 days measured twice every week relative to control; type: functional, organism-based; settings: time 21.0 day
hERG (KCNH2) = hERG (KCNH2) (Homo sapiens, UniProt Q12809); assay: Inhibition of human ERG expressed in HEK293 cells at 10 uM by patch-clamp technique relative to control; type: cell-based; settings: HEK293 cells that express hERG
Z-138 = assay: Antiproliferation activity against human Z138 cells assessed as reduction in cell viability incubated for 72 hrs by MTS assay; type: functional, cell-based; settings: Z-138, 72 h
[3] = Selectivity ratio of Antiproliferative activity against human RPMI-8226 cells to Antiproliferative activity against human RPMI-8226 cells in presence of gemcitabine; type: functional
HT-29 [4] = assay: Antitumor activity against human HT-29 cells xenografted in mouse assessed as reduction in tumor growth by measuring T/C ratio at 30 mg/kg, po cotreated with gemcitabine dosed 5 days/week for 22 days measured twice every week; type: functional; settings: time 22 day
[5] = biological target: T2, Serine/threonine-protein kinase DCLK3 (Homo sapiens) (UniProt Q9C098); assay: Inhibition of wild type human DCAMKL3 (M1 to G289 residue) expressed in bacterial expression system assessed as protein activity at 0.5 uM relative to control; parameters: scale not given: the % may be the effect or the level left
T2 sequence (whole entry): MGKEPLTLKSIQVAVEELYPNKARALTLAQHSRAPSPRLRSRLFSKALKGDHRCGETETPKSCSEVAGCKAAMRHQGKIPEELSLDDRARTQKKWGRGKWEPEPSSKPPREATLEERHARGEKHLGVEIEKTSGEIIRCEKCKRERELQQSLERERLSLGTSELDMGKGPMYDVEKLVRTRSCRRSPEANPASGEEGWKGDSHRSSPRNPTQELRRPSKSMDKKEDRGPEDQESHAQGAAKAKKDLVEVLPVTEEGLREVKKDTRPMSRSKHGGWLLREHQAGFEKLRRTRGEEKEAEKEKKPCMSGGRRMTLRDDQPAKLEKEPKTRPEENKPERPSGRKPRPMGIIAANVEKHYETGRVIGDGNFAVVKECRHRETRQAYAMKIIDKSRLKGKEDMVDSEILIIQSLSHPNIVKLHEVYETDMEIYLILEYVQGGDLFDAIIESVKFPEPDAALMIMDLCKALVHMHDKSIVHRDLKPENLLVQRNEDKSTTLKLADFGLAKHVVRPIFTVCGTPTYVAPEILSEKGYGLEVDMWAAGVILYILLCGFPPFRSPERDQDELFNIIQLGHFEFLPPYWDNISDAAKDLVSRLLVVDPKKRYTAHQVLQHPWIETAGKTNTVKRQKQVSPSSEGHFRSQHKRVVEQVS

[6] = Half life in ICR mouse at 20 mg/kg, po measured after 0.083 to 48 hrs by LC-MS/MS analysis; type: ADME, organism-based; settings: in vivo, time 0.083-48 hrs
RPMI-8226 = assay: Antiproliferative activity against human RPMI-8226 cells incubated for 72 hrs in presence of gemcitabine by CCK8 assay; type: functional, cell-based
[7] = AUCt in ICR mouse at 20 mg/kg, po measured after 0.083 to 48 hrs by LC-MS/MS analysis; type: ADME, organism-based; parameters: route oral, dose 20 mg/kg, time 0.083-48 hrs; settings: in vivo
HT-29 [8] = assay: Antiproliferative activity against human HT-29 cells incubated for 72 hrs in presence of gemcitabine by CCK8 assay; type: functional, cell-based
[9] = biological target: Ribosomal protein S6 kinase alpha-3 (Homo sapiens) (UniProt P51812); assay: Inhibition of wild type human RSK2 expressed in mammalian expression system assessed as protein activity at 0.5 uM relative to control; parameters: scale not given: the % may be the effect or the level left
Mus musculus = assay: Downregulation of S296 phosphorylation in tumor of mouse xenografted with human HT-29 cells at 30 mg/kg, po dosed 5 days/week for 22 days by Western blot analysis; type: functional, organism-based; settings: time 22.0 day
MV4-11 [10] = assay: Antitumor activity against human MV4-11 cells xenografted in mouse assessed as inhibition of tumor growth at 30 mg/kg, po dosed for 21 days measured twice every week relative to control; type: functional; settings: MV4-11, po, 504 h, time 21 day, read-out: TGI
[11] = Selectivity ratio of Antiproliferative activity against human A549 cells to Antiproliferative activity against human A549 cells in presence of gemcitabine; type: functional
[12] = biological target: T3, Serine/threonine-protein kinase Chk1 (Homo sapiens) (UniProt O14757); assay: Inhibition of CHK1 in human HT-29 cells assessed as […] residue at 1.1 uM incubated for 12 hrs by Western blot analysis; type: cell-based
T3 sequence (whole entry): T1 sequence (O14757 whole entry)

[13] = Cmax in ICR mouse at 20 mg/kg, po measured after 0.083 to 48 hrs by LC-MS/MS analysis; type: ADME, organism-based; parameters: route oral, time upper 48 hrs, time lower 0.083 hrs, dose 20 mg/kg; settings: in vivo
MV4-11 [14] = assay: Antitumor activity against human MV4-11 cells xenografted in mouse assessed as inhibition of tumor growth at 5 mg/kg, po dosed for 21 days measured twice every week relative to control; type: functional; settings: MV4-11, po, 504 h, time 21 day, read-out: TGI
[15] = MRT (0 to infinity) in ICR mouse at 20 mg/kg, po measured after 0.083 to 48 hrs by LC-MS/MS analysis; type: ADME, organism-based; settings: in vivo, time 0.083-48 hrs
[16] = biological target: T3, Serine/threonine-protein kinase Chk1 (Homo sapiens); assay: Inhibition of wild type human CHK1 (M1 to G289 residue) expressed in bacterial expression system assessed as protein activity at 0.5 uM relative to control; parameters: scale not given: the % may be the effect or the level left
[17] = Tmax in ICR mouse at 20 mg/kg, po measured after 0.083 to 48 hrs by LC-MS/MS analysis; type: ADME, organism-based; settings: in vivo, time 0.083-48 hrs
A549 = assay: Antiproliferative activity against human A549 cells incubated for 72 hrs in presence of gemcitabine by CCK8 assay; type: functional, cell-based
MV4-11 [18] = assay: Antiproliferation activity against human MV4-11 cells assessed as reduction in cell viability incubated for 72 hrs by MTS assay; type: functional, cell-based; settings: MV4-11, 72 h
[19] = biological target: Calcium/calmodulin-dependent protein kinase type II subunit delta (Homo sapiens) (UniProt Q13557); assay: Inhibition of wild type human CAMK2D (M1 to E329 residues) expressed in bacterial expression system assessed as protein activity at 0.5 uM relative to control; parameters: scale not given: the % may be the effect or the level left
Calcium/calmodulin-dependent protein kinase type II subunit delta (Homo sapiens), sequence (Q13557 whole entry, the tested form may be a part): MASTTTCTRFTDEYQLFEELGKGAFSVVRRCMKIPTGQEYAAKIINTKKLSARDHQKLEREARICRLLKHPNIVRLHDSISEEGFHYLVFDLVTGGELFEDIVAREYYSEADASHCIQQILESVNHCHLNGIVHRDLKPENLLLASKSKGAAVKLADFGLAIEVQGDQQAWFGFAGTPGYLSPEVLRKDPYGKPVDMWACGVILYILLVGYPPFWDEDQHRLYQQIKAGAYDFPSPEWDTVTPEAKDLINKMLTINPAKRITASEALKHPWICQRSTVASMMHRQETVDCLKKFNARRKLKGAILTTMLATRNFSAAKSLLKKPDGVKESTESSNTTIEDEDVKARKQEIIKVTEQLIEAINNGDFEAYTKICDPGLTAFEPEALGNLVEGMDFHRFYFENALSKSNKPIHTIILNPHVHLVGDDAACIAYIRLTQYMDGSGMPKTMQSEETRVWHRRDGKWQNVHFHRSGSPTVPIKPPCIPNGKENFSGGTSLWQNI

Ribosomal protein S6 kinase alpha-3 (Homo sapiens), sequence (P51812 whole entry): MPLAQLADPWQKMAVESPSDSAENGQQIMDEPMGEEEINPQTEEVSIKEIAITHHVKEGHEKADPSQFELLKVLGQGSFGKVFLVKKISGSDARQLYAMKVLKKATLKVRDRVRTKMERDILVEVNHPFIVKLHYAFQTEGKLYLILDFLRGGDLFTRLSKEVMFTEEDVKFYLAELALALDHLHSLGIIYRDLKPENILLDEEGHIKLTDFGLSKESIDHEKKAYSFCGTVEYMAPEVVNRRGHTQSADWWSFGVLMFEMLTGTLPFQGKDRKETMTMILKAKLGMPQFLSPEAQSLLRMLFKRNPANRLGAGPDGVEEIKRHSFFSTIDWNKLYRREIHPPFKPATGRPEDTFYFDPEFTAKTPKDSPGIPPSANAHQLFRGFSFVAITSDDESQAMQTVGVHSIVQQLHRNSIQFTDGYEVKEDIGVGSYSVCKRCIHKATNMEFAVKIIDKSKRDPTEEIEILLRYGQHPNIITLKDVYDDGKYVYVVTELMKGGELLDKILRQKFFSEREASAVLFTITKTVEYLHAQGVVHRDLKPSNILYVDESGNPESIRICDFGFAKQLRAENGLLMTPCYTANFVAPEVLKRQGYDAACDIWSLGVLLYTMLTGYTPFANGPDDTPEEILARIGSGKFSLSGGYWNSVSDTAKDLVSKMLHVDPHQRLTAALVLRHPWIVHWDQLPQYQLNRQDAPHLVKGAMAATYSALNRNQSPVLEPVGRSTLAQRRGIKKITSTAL
hERG (KCNH2), sequence (Q12809 whole entry): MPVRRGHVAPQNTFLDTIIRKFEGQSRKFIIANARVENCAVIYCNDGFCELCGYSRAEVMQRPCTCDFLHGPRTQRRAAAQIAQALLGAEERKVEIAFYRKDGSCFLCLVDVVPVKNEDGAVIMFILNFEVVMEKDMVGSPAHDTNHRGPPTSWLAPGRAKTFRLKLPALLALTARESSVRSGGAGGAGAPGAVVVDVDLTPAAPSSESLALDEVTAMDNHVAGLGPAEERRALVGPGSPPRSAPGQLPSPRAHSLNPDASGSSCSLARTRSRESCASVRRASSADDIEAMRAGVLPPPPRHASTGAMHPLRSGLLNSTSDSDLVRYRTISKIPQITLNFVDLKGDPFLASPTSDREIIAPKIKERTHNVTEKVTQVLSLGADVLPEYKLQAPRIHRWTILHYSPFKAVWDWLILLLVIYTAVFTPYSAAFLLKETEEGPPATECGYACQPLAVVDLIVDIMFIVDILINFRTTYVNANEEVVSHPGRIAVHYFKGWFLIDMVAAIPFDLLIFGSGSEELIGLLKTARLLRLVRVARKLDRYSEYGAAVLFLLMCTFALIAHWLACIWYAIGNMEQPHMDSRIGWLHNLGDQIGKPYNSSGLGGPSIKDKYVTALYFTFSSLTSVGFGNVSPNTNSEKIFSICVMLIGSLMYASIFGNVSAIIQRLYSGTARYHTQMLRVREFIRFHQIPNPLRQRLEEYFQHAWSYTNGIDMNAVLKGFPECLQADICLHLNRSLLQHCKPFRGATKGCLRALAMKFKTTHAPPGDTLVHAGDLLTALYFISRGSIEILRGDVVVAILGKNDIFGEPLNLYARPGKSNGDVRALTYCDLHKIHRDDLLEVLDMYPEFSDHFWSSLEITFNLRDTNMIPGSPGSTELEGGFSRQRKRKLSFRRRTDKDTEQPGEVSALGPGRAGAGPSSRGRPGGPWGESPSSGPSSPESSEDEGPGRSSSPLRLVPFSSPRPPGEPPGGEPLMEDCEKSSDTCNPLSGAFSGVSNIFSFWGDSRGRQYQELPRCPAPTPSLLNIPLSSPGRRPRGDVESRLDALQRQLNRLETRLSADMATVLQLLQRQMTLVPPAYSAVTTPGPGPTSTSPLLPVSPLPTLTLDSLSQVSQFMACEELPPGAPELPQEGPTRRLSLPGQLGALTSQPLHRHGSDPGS

IC50 [1]: 16.1 nM
Activity [5]: 7%
half-life [6]: 10.8 h
AUC(0-t) [7]: 17700 ng·h/mL
Activity [9]: 13%
Activity [12]: Active
Cmax [13]: 1450 ng/mL
MRT inf [15]: 14.7 h
Activity [16]: 4%
Tmax [17]: 4 h
IC50 (MV4-11 [18]): 140 nM
Activity [19]: 19%
SMILES: CC(C)(N)CCNc1nc(Nc2ccc(C#N)nc2)ncc1C(F)(F)F
Activity (MV4-11 [2]): Dose-Dependent Effect
inhibition at 10 µM (hERG (KCNH2)): 35.5%
IC50 (Z-138): 3280 nM
Ratio [3]: 100
T/C (HT-29 [4]): 11.99%
Activity (RPMI-8226): Active
Activity (HT-29 [8]): Active
Activity (Mus musculus): Active
inhibition in vivo at 30 mg/kg (MV4-11 [10]): 94.9%
Ratio [11]: 100
inhibition in vivo at 5 mg/kg (MV4-11 [14]): 51.6%
Activity (A549): Active
